This is an account of results in PubChem BioAssay AID248 (DTP/NCI, 2004).

Inconclusive results and toxic doses are left out.

The test system of the test is L1210 leukemia ip in BDF1 mice, survival T/C. As to the kind of experiment: NCI In Vivo Anticancer Drug Screen. Data for tumor model L1210 Leukemia (intraperitoneal) in B6D2F1 (BDF1) mice. As to conditions: endpoint: mean survival time, higher = longer survival. In a few lines: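 Antitumor effect is assessed in tumor-bearing animals. Survival in the compound arm is compared with a vehicle-dosed control arm and expressed as their quotient.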

Where [1] appears, read: dose: 100.0 mg/kg/injection, schedule: Q04DX002 (ip), vehicle: Klucel (hydroxypropylcellulose) (HPC).
[2] abbreviates: dose: 200.0 mg/kg/injection, schedule: Q04DX002 (ip), vehicle: Klucel (hydroxypropylcellulose) (HPC).
The mark [3] stands for this setting: dose: 400.0 mg/kg/injection, schedule: Q04DX002 (ip), vehicle: Klucel (hydroxypropylcellulose) (HPC).
Setting [4] is: dose: 100.0 mg/kg/injection, schedule: Q04DX003 (ip), vehicle: Klucel (hydroxypropylcellulose) (HPC).
Where [5] appears, read: dose: 100.0 mg/kg/injection, schedule: Q04DX002 (ip), vehicle: saline.

For `O=C1NC(=O)c2ncccc21`, the T/C runs as follows: (dose: 100.0 mg/kg/injection, schedule: Q01DX009 (ip), vehicle: saline with Tween-80) 90 % of control; (dose: 100.0 mg/kg/injection, schedule: Q04DX003 (ip), vehicle: saline with Tween-80) 87 % of control; (dose: 200.0 mg/kg/injection, schedule: Q01DX009 (ip), vehicle: saline with Tween-80) 95 % of control; (dose: 200.0 mg/kg/injection, schedule: Q04DX003 (ip), vehicle: saline with Tween-80) 103 % of control; (dose: 400.0 mg/kg/injection, schedule: Q01DX009 (ip), vehicle: saline with Tween-80) 97 % of control; (dose: 400.0 mg/kg/injection, schedule: Q04DX003 (ip), vehicle: saline with Tween-80) 100 % of control.

Take `CC(C)=CCC/C(C)=C\COc1ccc(C(C)(C)C)cc1`: the T/C was 96 % of control under setting [1], 100 % of control under setting [2] and 89 % of control under setting [3].

In the case of `Nc1cccc2cc3ccccc3nc12`, the T/C runs as follows: (dose: 25.0 mg/kg/injection, schedule: Q04DX003 (ip), vehicle: Klucel (hydroxypropylcellulose) (HPC)) 102 % of control; (dose: 50.0 mg/kg/injection, schedule: Q04DX003 (ip), vehicle: Klucel (hydroxypropylcellulose) (HPC)) 92 % of control; under setting [4], 86 % of control.

In the case of `CCOC(=O)CSc1nc(N)cc(=O)[nH]1`, the T/C (dose: 50.0 mg/kg/injection, schedule: Q01DX001 (ip), vehicle: Klucel (hydroxypropylcellulose) (HPC)) is 110 % of control; the T/C (dose: 100.0 mg/kg/injection, schedule: Q01DX001 (ip), vehicle: Klucel (hydroxypropylcellulose) (HPC)) was 117 % of control; the T/C (dose: 200.0 mg/kg/injection, schedule: Q01DX001 (ip), vehicle: Klucel (hydroxypropylcellulose) (HPC)) is 110 % of control.

Turning to `NC1=NCC(CSS(=O)(=O)O)S1` (centres undefined), the T/C by setting is: (dose: 5.0 mg/kg/injection, schedule: Q01DX009 (ip), vehicle: saline) 95 % of control; (dose: 10.0 mg/kg/injection, schedule: Q01DX001 (ip), vehicle: saline) 101 % of control; (dose: 10.0 mg/kg/injection, schedule: Q01DX009 (ip), vehicle: saline) 89 % of control; (dose: 10.0 mg/kg/injection, schedule: Q04DX003 (ip), vehicle: saline) 96 % of control; (dose: 20.0 mg/kg/injection, schedule: Q01DX001 (ip), vehicle: saline) 93 % of control; (dose: 20.0 mg/kg/injection, schedule: Q01DX009 (ip), vehicle: saline) 106 % of control. For the same molecule, the T/C is, setting by setting: (dose: 20.0 mg/kg/injection, schedule: Q04DX003 (ip), vehicle: saline) 105 % of control; (dose: 29.0 mg/kg/injection, schedule: Q01DX009 (ip), vehicle: saline) 90 % of control; (dose: 40.0 mg/kg/injection, schedule: Q01DX001 (ip), vehicle: saline) 95 % of control; (dose: 40.0 mg/kg/injection, schedule: Q04DX003 (ip), vehicle: saline) 97 % of control.

For `CCOC(=O)COc1ccc2c(C)c(CCN(CC)CC)c(=O)oc2c1`, the T/C runs as follows: (dose: 100.0 mg/kg/injection, schedule: Q01DX001 (ip), vehicle: saline) 103 % of control; (dose: 200.0 mg/kg/injection, schedule: Q01DX001 (ip), vehicle: saline) 92 % of control; (dose: 400.0 mg/kg/injection, schedule: Q01DX001 (ip), vehicle: saline) 96 % of control.

For `CCCCSc1ccc2c(cc1=O)C(NC(C)=O)CCc1cc(OC)c(OC)c(OC)c1-2` (centres undefined), the T/C is, setting by setting: (dose: 25.0 mg/kg/injection, schedule: Q04DX002 (ip), vehicle: saline) 98 % of control; (dose: 50.0 mg/kg/injection, schedule: Q04DX002 (ip), vehicle: saline) 98 % of control; under setting [5], 120 % of control.

With `Nc1nc(SCC(=O)c2ccc(F)cc2)sc1C(=O)c1ccc(F)cc1`, the T/C was 100 % of control under setting [1], 112 % of control under setting [2] and 100 % of control under setting [3].

For `CC[C@]1(O)C[C@H](OC2CC(N(C)C)C(OC3CC(O)C(O)C(C)O3)C(C)O2)c2c(cc3c(c2O)C(=O)c2c(O)ccc(O)c2C3=O)[C@H]1C(=O)OC` (some centres undefined), the T/C (dose: 0.2 mg/kg/injection, schedule: Q04DX002 (ip), vehicle: Klucel (hydroxypropylcellulose) (HPC)) was 104 % of control; the T/C (dose: 0.4 mg/kg/injection, schedule: Q01DX001 (ip), vehicle: Klucel (hydroxypropylcellulose) (HPC)) was 108 % of control; the T/C (dose: 0.4 mg/kg/injection, schedule: Q04DX002 (ip), vehicle: Klucel (hydroxypropylcellulose) (HPC)) is 114 % of control; the T/C (dose: 0.8 mg/kg/injection, schedule: Q01DX001 (ip), vehicle: Klucel (hydroxypropylcellulose) (HPC)) is 105 % of control; the T/C (dose: 0.8 mg/kg/injection, schedule: Q04DX002 (ip), vehicle: Klucel (hydroxypropylcellulose) (HPC)) was 107 % of control; the T/C (dose: 1.6 mg/kg/injection, schedule: Q01DX001 (ip), vehicle: Klucel (hydroxypropylcellulose) (HPC)) was 111 % of control. Also, the T/C reads like this: (dose: 1.6 mg/kg/injection, schedule: Q04DX002 (ip), vehicle: Klucel (hydroxypropylcellulose) (HPC)) 107 % of control; (dose: 3.2 mg/kg/injection, schedule: Q01DX001 (ip), vehicle: Klucel (hydroxypropylcellulose) (HPC)) 116 % of control; (dose: 6.4 mg/kg/injection, schedule: Q01DX001 (ip), vehicle: Klucel (hydroxypropylcellulose) (HPC)) 120 % of control.

For the molecule `CCCCCCP(=O)(CCCCCC)CCCCCC`, the T/C is 89 % of control (dose: 44.0 mg/kg/injection, schedule: Q01DX Z (ip), vehicle: methylcellulose (MC)); 161 % of control (dose: 55.0 mg/kg/injection, schedule: Q01DX Z (ip), vehicle: methylcellulose (MC)); 93 % of control (dose: 66.0 mg/kg/injection, schedule: Q01DX Z (ip), vehicle: methylcellulose (MC)); 172 % of control (dose: 83.0 mg/kg/injection, schedule: Q01DX Z (ip), vehicle: methylcellulose (MC)); 96 % of control (dose: 100.0 mg/kg/injection, schedule: Q01DX Z (ip), vehicle: methylcellulose (MC)); 97 % of control under setting [4]. For the same molecule, the T/C (dose: 200.0 mg/kg/injection, schedule: Q04DX003 (ip), vehicle: Klucel (hydroxypropylcellulose) (HPC)) is 110 % of control and the T/C (dose: 400.0 mg/kg/injection, schedule: Q04DX003 (ip), vehicle: Klucel (hydroxypropylcellulose) (HPC)) was 90 % of control.

Consider `O=C(CBr)c1ccccc1`, for which the T/C is, setting by setting: (dose: 10.0 mg/kg/injection, schedule: Q04DX003 (ip), vehicle: saline with Tween-80) 93 % of control; (dose: 20.0 mg/kg/injection, schedule: Q04DX003 (ip), vehicle: saline with Tween-80) 97 % of control.

As to `COc1cc2c3c(c1)-c1c(ccc(OC)c1O)CC3N(C)CC2` (centres undefined), the T/C runs as follows: (dose: 25.0 mg/kg/injection, schedule: Q04DX003 (ip), vehicle: DMSO) 93 % of control; (dose: 50.0 mg/kg/injection, schedule: Q04DX003 (ip), vehicle: DMSO) 91 % of control; (dose: 100.0 mg/kg/injection, schedule: Q04DX003 (ip), vehicle: DMSO) 91 % of control.

`CC1CC1C(N)=O` (centres undefined): the T/C is, setting by setting: under setting [5], 97 % of control; (dose: 200.0 mg/kg/injection, schedule: Q04DX002 (ip), vehicle: saline) 110 % of control.

Take `CCCCCCCCCCCC(=O)CCCCC`: the T/C is 91 % of control (dose: 100.0 mg/kg/injection, schedule: Q01DX009 (ip), vehicle: other); 94 % of control (dose: 200.0 mg/kg/injection, schedule: Q01DX009 (ip), vehicle: other); 91 % of control (dose: 400.0 mg/kg/injection, schedule: Q01DX009 (ip), vehicle: other).

Regarding `Nc1c(F)c(F)c(N=Nc2ccccc2)c(F)c1F`, the T/C (dose: 100.0 mg/kg/injection, schedule: Q01DX001 (ip), vehicle: carboxymethylcellulose (CMC)) is 95 % of control; the T/C (dose: 200.0 mg/kg/injection, schedule: Q01DX001 (ip), vehicle: carboxymethylcellulose (CMC)) is 96 % of control; the T/C (dose: 400.0 mg/kg/injection, schedule: Q01DX001 (ip), vehicle: carboxymethylcellulose (CMC)) is 95 % of control.

On to `Cc1ccc([N+](=O)[O-])cc1NC(=O)Nc1onc(C)c1C`, for which the T/C reads like this: (dose: 50.0 mg/kg/injection, schedule: Q01DX009 (ip), vehicle: Klucel (hydroxypropylcellulose) (HPC)) 90 % of control; (dose: 200.0 mg/kg/injection, schedule: Q01DX009 (ip), vehicle: Klucel (hydroxypropylcellulose) (HPC)) 87 % of control.

Consider `CC12CCN=C1c1ccc3cc(O)ccc3c1CC2` (centres undefined), for which the T/C reads like this: (dose: 100.0 mg/kg/injection, schedule: Q04DX003 (sc), vehicle: steriod suspending solution) 93 % of control; (dose: 200.0 mg/kg/injection, schedule: Q04DX003 (sc), vehicle: steriod suspending solution) 107 % of control; (dose: 400.0 mg/kg/injection, schedule: Q04DX003 (sc), vehicle: steriod suspending solution) 96 % of control.
